According to patent publication US20090111895A1, “ENHANCED DIALDEHYDE DISINFECTANT AND STERILIZATION FORMULATIONS” (Ethicon, Inc., priority 2007, published 2009):

Key:
spores of B. subtilis = conditions: cited from earlier work
[1] = system: Bacillus subtilis (ATCC 19659) spores; assay: Bacillus subtilis sporicidal suspension test; assay type: cell-based; conditions: 20° C.; for sporicidal activity (in words): Table 1 results; for sporicidal activity (in words) / enhancement of the sporicidal activity of ortho-phthalaldehyde (in words): 5 hours; for enhancement of the sporicidal activity of ortho-phthalaldehyde (in words): Tables 2-4, 0.3 wt. % ortho-phthalaldehyde
Procedure: The phrase “Bacillus subtilis sporicidal suspension test”, when used in the appended claims means a determination of the sporicidal activity of a dialdehyde calculated as a log reduction of Bacillus subtilis bacterial spores. The test is performed according to Example 1 by treatment of Bacillus subtilis bacterial spores with a formulation consisting of the dialdehyde to be tested in water. The log10 reduction/mL is calculated from log N0−log Ni where N0 represent the number of organisms (cfu/mL) at time zero; and Ni represent the number of surviving organism (cfu/mL) at designated exposure time.
Several ortho-phthalaldehyde based germicidal solutions were tested to determine their effectiveness in killing Bacillus subtilis (ATCC 19659) spores using the Bacillus subtilis sporicidal suspension test.
For preparation of the inoculating spore test suspension, a 1 ml aliquot of the spore harvest was serial diluted with sterile water to produce a spore suspension of approximately 1×10^7 cfu ml.
Test solutions of ortho-phthalaldehyde/acetate were prepared by mixing acetate with CIDEX® OPA (which is a 0.55% solution of ortho-phthalaldehyde in water around pH 7.3, commercially available from Advanced Sterilization Products, a Johnson & Johnson Company) and diluted to levels indicated in Table 1.
The 1 ml aliquots of spore suspensions were exposed to 9 ml of ortho-phthalaldehyde solution at 20° C. The pHs of the tested solutions were adjusted to 7.3-7.5.
The experiments were performed using the suspension test, which involved adding 1 ml of 10^7 spores to sterile test tubes containing 9 ml of the challenge solution. The resulting test sample spore concentration was 10^6 cfu /ml. The tubes containing the test suspension/spores were vortex briefly to allow for mixing of the solution/spores. At the end of each of the appropriate exposure time at 20° C., 1 ml aliquots of the solution/spores mixture were aseptically transferred to sterile filtration units containing 0.45μ membrane filters with 100 ml of neutralizer solution (1% w/v glycine solution). The solutions were filtered and the membrane filters were rinsed again with 100 ml of neutralizers solution. The membrane filters were then individually transferred onto the surface of commercially available sterile Tryptic Soy Agar plates. The plates were incubated at 37° C. for 48 hours. After incubation, the number of survivors were determined for each test sample/exposure time.
The log10 reduction/mL is calculated from log N0−log Ni where N0 represent the number of organism (cfu/mL) at time zero; and Ni represent the number of surviving organism (cfu/mL) at designated exposure time.
In addition to acetate, several mixtures of ortho-phthalaldehyde with different carboxylates such as chloroacetate and propionate were also tested using the protocol described above in Example 1.
Benzoate was evaluated for its ability to enhance the sporicidal activity of ortho-phthalaldehyde using the protocol described above in Example 1. The pHs of all solutions were adjusted to neutral, 7.3-7.5.
Spore suspension tests with five germicide solutions containing 2.4% glutaraldehyde with various amounts of acetate ranging from 0 to 7% were conducted at 20° C. for 4 hours with Bacillus using the protocol described above in Example 1. The pHs of the solutions were adjusted to 8.2-8.9, which is the typical pH range for glutaraldehyde disinfecting solutions.

Bacillus subtilis spores = assay: Time kill assay; assay type: cell-based; conditions: Table 6; 0.3% ortho-phthalaldehyde, 20° C.
Procedure: Test solutions were prepared by mixing acetate with ortho-phthalaldehyde (if applicable) and the solutions were adjusted to pH 7.2. The solutions were then challenged with 10^6 per ml of Bacillus subtilis spores at 20° C. (room temperature). At each predetermined exposure time, samples from each of the test solutions were tested/assayed for survivors.

Structure (SMILES)	sporicidal activity (in words) [1]	enhancement of the sporicidal activity of ortho-phthalaldehyde (in words) [1]	other results
O=Cc1ccccc1C=O [ortho-phthalaldehyde, reference compound]	does not have significant sporicidal activity	–	activity against spores of B. subtilis (in words) (spores of B. subtilis): relatively ineffective against spores of B. subtilis
CCC(=O)O [propionate]	–	significantly enhance the sporicidal activity of ortho-phthalaldehyde	–
O=C(O)CCl [chloroacetate]	–	significantly enhance the sporicidal activity of ortho-phthalaldehyde	–
O=C(O)c1ccccc1 [benzoate]	–	enhances ortho-phthalaldehyde sporicidal efficacy when the benzoate concentration is above about 3%	–
CC(=O)[O-].[K+] [acetate, potassium acetate]	does not have significant sporicidal activity	–	enhancement of the sporicidal activity of glutaraldehyde (in words) ([1]; Table 5, 2.4% glutaraldehyde, 4 hours): the sporicidal activity of glutaraldehyde is significantly enhanced; enhancement of the sporicidal activity of ortho-phthalaldehyde (in words) (Bacillus subtilis spores): the sporicidal activity of ortho-phthalaldehyde is significantly enhanced
